Laboratory results taken from PubChem BioAssay (NCI).
Where “and” joins values, the source holds several entries; their conditions need not be identical. Equal values may be shown once.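 Interpolation was linear, between the two tested concentrations surrounding the appropriate level; five concentrations were tested over 48 hours in 96-well plates. GI50 is the concentration that inhibits growth by half. The concentration for full growth arrest is given as TGI.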

Tests used:
Test in all cases: NCI anticancer screen, dose series, 48 h
A498 renal = system: A498 renal
IGROV1 ovarian = system: IGROV1 ovarian
SNB-75 CNS = system: SNB-75 CNS
MOLT-4 leukemia = system: MOLT-4 leukemia
LOX IMVI melanoma = system: LOX IMVI melanoma
MCF7 breast = system: MCF7 breast
MDA-MB-435 = system: MDA-MB-435
RXF 393 renal = system: RXF 393 renal
OVCAR-4 ovarian = system: OVCAR-4 ovarian
MALME-3M melanoma = system: MALME-3M melanoma

| Structure (SMILES) | GI50 (A498 renal) | TGI (A498 renal) | GI50 (IGROV1 ovarian) | TGI (IGROV1 ovarian) | GI50 (SNB-75 CNS) | TGI (SNB-75 CNS) | GI50 (MOLT-4 leukemia) | TGI (MOLT-4 leukemia) | GI50 (LOX IMVI melanoma) | TGI (LOX IMVI melanoma) | GI50 (MCF7 breast) | TGI (MCF7 breast) | GI50 (MDA-MB-435) | TGI (MDA-MB-435) | GI50 (RXF 393 renal) | TGI (RXF 393 renal) | GI50 (OVCAR-4 ovarian) | TGI (OVCAR-4 ovarian) | TGI (MALME-3M melanoma) | GI50 (MALME-3M melanoma) |
| --- | --- | --- | --- | --- | --- | --- | --- | --- | --- | --- | --- | --- | --- | --- | --- | --- | --- | --- | --- | --- |
| COc1ccc(C#CC2=C(Br)C(=O)OC2)cc1 | 0.873 µM | 12 µM | 26.8 µM | > 50 µM | 1.29 µM | 16.6 µM | 4.44 µM | > 50 µM | 6.42 µM | 14 µM | 2.47 µM | > 50 µM | 9.94 µM | 27.3 µM | 7.06 µM | 17.4 µM | 2.46 µM | 11.4 µM |  |  |
| Cn1c(=S)c2[nH]c(SCc3cccnc3)nc2n(C)c1=O |  | > 100 µM |  | > 100 µM |  | > 100 µM |  | > 100 µM |  | > 100 µM |  | > 100 µM |  | > 100 µM |  | > 100 µM |  | > 100 µM | > 100 µM |  |
| CN1CCN(c2ccc(NC(=O)c3cncnc3Nc3ccc4c(ccn4Cc4cccc(F)c4)c3)cc2)CC1 | 2.16 µM | 6.76 µM | 2.29 µM | 6.92 µM | 4.27 µM | 8.51 µM | 0.922 µM | 3.14 µM | 0.591 µM | 1.16 µM | 1.15 µM | 5.02 µM | 0.625 µM | 1.2 µM | 0.707 µM | 3.77 µM | 3.97 µM | 8.66 µM | 0.976 µM | 0.524 µM |
| COc1ccccc1N1CCN(CC(O)Cn2c(=O)c3c(OC)nc(C)cc3c(=O)n2-c2ccccc2)CC1 (stereo not given) | 23.8 µM | 98.2 µM | 41 µM | > 100 µM | 14.8 µM | 37.6 µM | > 100 µM | > 100 µM | 30.5 µM | > 100 µM | > 100 µM | > 100 µM | > 100 µM | > 100 µM |  |  | > 100 µM | > 100 µM | > 100 µM | > 100 µM |
| COC(=O)C1OC(SCCN)C(O)C(O)C1O (stereo not given) |  | > 100 µM |  | > 100 µM |  | > 100 µM |  | > 100 µM |  | > 100 µM |  | > 100 µM |  | > 100 µM |  | > 100 µM |  | > 100 µM | > 100 µM |  |
| CCCCCC/C=C\CCCCCCCCCc1cccc(OC)c1O |  | > 100 µM |  | > 100 µM |  | > 100 µM |  | > 100 µM |  | > 100 µM |  | > 100 µM |  | > 100 µM |  | > 100 µM |  |  | > 100 µM |  |
| CCN1Cc2c(/C=C/c3ccccc3)nc3ccc(OC)cc3c2N(c2cccc(Cl)c2)C1 | 1.5 µM | 3.86 µM | 1.4 µM | 3.68 µM | 1.8 µM | 6.1 µM | 1.45 µM | 5.02 µM | 1.7 µM | 3.51 µM | 1.65 µM | 3.75 µM | 1.81 µM | 3.7 µM | 2.07 µM | 3.69 µM | 2.8 µM | 8.44 µM | 3.52 µM | 1.68 µM |
| Clc1ccc2c(NCCNc3nc(N4CCCCC4)nc4ccccc34)ccnc2c1 | 10.2 µM | 22.1 µM | 2.54 µM | 9.86 µM | 1.78 µM | 7.46 µM | 2.29 µM | 11.8 µM | 1.58 µM | 3.36 µM | 0.748 µM | 12.6 µM | 1.74 µM | 3.43 µM | 1.81 µM | 3.72 µM | 2.81 µM | 13.8 µM | 4.05 µM | 2.05 µM |
| O=C(O)c1ccccc1C(=O)Nc1cc2c(cc1Br)-c1ccccc1C2=O |  | > 100 µM |  | > 100 µM |  | > 100 µM |  | > 100 µM |  | > 100 µM |  | > 100 µM |  | > 100 µM |  | > 100 µM |  | > 100 µM | > 100 µM |  |
| COc1cc2c3c(n(CCCN=[N+]=[N-])c(=O)c2cc1OC)-c1ccc(NC(C)=O)cc1C3=O | > 50 µM | > 50 µM | 47.3 µM | > 50 µM | 25.8 µM | > 50 µM |  |  | > 50 µM | > 50 µM | > 50 µM | > 50 µM | > 50 µM | > 50 µM | > 50 µM | > 50 µM | > 50 µM | > 50 µM | > 50 µM | > 50 µM |
| Nc1nc(N)c2cc(S(=O)(=O)c3ccccc3)ccc2n1 | 8.33 µM | > 100 µM | 4.59 µM | > 100 µM | 8.86 µM | > 100 µM | 4.31 µM | > 100 µM | 0.516 µM | > 100 µM | 2.86 µM | > 100 µM | 0.487 µM | > 100 µM | 72.5 µM | > 100 µM | 7.2 µM | > 100 µM | > 100 µM | 4.97 µM |
| C#CCn1c2c(c3ccccc3c1=O)C(=O)c1ccccc1-2 |  | 82.9 µM |  | 80.7 µM |  | 27.4 µM |  | > 100 µM |  | > 100 µM |  | 27.7 µM |  | > 100 µM |  |  |  | 33.1 µM | > 100 µM |  |
| N#Cc1cc2c(=S)[nH]c(=S)[nH]c2nc1SCc1ccccc1 | 39.9 µM | > 100 µM | 55.8 µM | > 100 µM |  |  | 43.3 µM | > 100 µM | 17.3 µM | 43.4 µM | 50.6 µM | > 100 µM | 34.8 µM | > 100 µM | 31.8 µM | > 100 µM | 39.2 µM | > 100 µM |  |  |
| Nc1ccccc1-n1c2c(c3ccccc3c1=O)C(=O)c1ccccc1-2 |  | > 100 µM |  | > 100 µM |  | > 100 µM |  | > 100 µM |  | > 100 µM |  | > 100 µM |  | > 100 µM |  |  |  | 82.7 µM | 85.5 µM |  |
| CC[C@H](C)C(=O)O[C@H]1C[C@@H](C)C=C2C=C[C@H](C)[C@H](CC[C@@H]3C[C@@H](O)CC(=O)O3)[C@H]21 | 0.283 µM and 0.162 µM | 2.2 µM and 1.1 µM and 2.82 µM | 3.22 µM and 5.31 µM | 23.2 µM and 29 µM and > 30 µM |  |  | 49.2 µM and 21.4 µM | > 100 µM and 53.4 µM and > 30 µM | 0.932 µM | 21.3 µM and 6.82 µM and 7.71 µM | 32.1 µM and 14.9 µM | > 100 µM | 20.2 µM and 15 µM | > 100 µM | 3.48 µM | 31.8 µM and 13.8 µM and 17.3 µM | 10.9 µM and 17.6 µM | 61.1 µM and > 55.5 µM and > 30 µM | > 100 µM and 31.6 µM and > 30 µM | 14.1 µM and 15.2 µM |
